Assays:
[1] = system: patients with advanced solid tumours; experiment: Phase I toxicity assessment (NCI-CTC version 2.0), oral XR11576 days 1–5 every 21 days; assay type: in vivo
Procedure: The total dose prescribed was rounded to the nearest 5 mg. […] Dose escalations between cohorts were based on the prior dose level's toxicity and pharmacological data, allowing a dose escalation up to 100% (which was determined by the worst significant toxicity). […] The stopping dose was defined as the dose level that induced dose-limiting toxicity (DLT) during course 1 in ⩾2/3 or ⩾2/6 patients. Dose-limiting toxicities were defined as grade 4 granulocytopenia for 7 or more days, febrile neutropenia, platelets <25.0 × 10^9 l^−1 and/or nonhaematological toxicity ⩾grade 3. Nausea and vomiting subsequently responding to antiemetic therapy were excluded from DLT. […] If a patient encountered DLT, the dose of XR11576 was decreased by one dose level at re-treatment. […] At the dose recommended for further studies, the number of patients treated could be expanded to 12. Toxicities were evaluated according to the National Cancer Institute Common Toxicity Criteria, version 2.0 (ctep.info.nih.gov/reporting/in dex.html).
Before treatment, a complete medical history was recorded and a physical examination performed. A complete blood count (CBC) including white blood cell differential and serum biochemistry, which involved sodium, potassium, calcium, urea, creatinine, uric acid, total protein, albumin, total bilirubin, alkaline phosphatase, γ-glutamyl transferase, aspartate aminotransferase, alanine aminotransferase, lactate dehydrogenase and glucose, were performed, as were urinalysis, pregnancy test, relevant tumour markers, electrocardiogram and a chest X-ray. […] Weekly evaluations included history, physical examination, toxicity assessment according to the CTC criteria version 2.0, and serum chemistries. Complete blood count was determined twice weekly. Tumour evaluation was performed after every two courses according to the Response Evaluation Criteria in Solid Tumours (RECIST) ([Therasse et al, 2000]). Patients were taken off protocol at the onset of disease progression.

[2] = rats; cited from earlier work
[3] = system: multidrug-resistant cells overexpressing P-gp or MRP, cells with downregulation of topoisomerase II levels; design: method as in Di Nicolantonio et al, 2002; conditions: cells overexpressing P-gp or MRP or with downregulated topoisomerase II; ref Di Nicolantonio et al, 2002; cited from earlier work
[4] = orally on days 1–5 every 3 weeks

COc1cccc2c1ccc1nc3cccc(C(=O)N[C@H](C)CN(C)C)c3nc12 [XR11576, 4-methoxy-benzo[a]phenazine-11-carboxylic acid (2-dimethulamino-1-R-methyl-ethyl)-amide]
diarrhoea and fatigue: dose-limiting toxicities (DLT) [1, 4]
three patients: patients with thrombocytopenia ([1]; limited to grade 1 and 2)
1 to 5 days: nausea and vomiting, range of duration ([1]; 30 mg)
one patient: patients who developed grade 1 alopecia ([1]; during treatment) | patients with grade 4 neutropenia ([1]; heavily pretreated patient, not complicated by fever)
1 to 15 days: diarrhoea, range of day of onset ([1]; all dose levels)
two of three patients: patients in whom DLT was encountered ([1]; 180 mg day^−1 dose level)
6 days: nausea and vomiting, median duration ([1]; dose level 180 mg)
seven patients: patients with grade 1 anaemia ([1]; all dose levels)
4 days: diarrhoea, median duration ([1]; all dose levels)
1: Diarrhoea grade 1, worse toxicity per cycle ([1]; 30 mg day^−1, all cycles) | Fatigue grade 1, worse toxicity per cycle ([1]; 30 mg day^−1, all cycles) | Fatigue grade 1, no. of patients ([1]; 30 mg day^−1, first cycle) | Fatigue grade 2, no. of patients ([1]; 30 mg day^−1, first cycle) | Diarrhoea grade 1, worse toxicity per cycle ([1]; 60 mg day^−1, all cycles) | Diarrhoea grade 1, no. of patients ([1]; 60 mg day^−1, first cycle) | Fatigue grade 1, no. of patients ([1]; 60 mg day^−1, first cycle) | Fatigue grade 3, no. of patients ([1]; 60 mg day^−1, first cycle) | Diarrhoea grade 3, worse toxicity per cycle ([1]; 120 mg day^−1, all cycles) | Fatigue grade 3, worse toxicity per cycle ([1]; 120 mg day^−1, all cycles) | Plt grade 1, worse toxicity per cycle ([1]; 120 mg day^−1, all cycles) | DLT, no. of patients ([1]; 120 mg day^−1, first cycle) | Diarrhoea grade 1, no. of patients ([1]; 120 mg day^−1, first cycle) | Diarrhoea grade 3, no. of patients ([1]; 120 mg day^−1, first cycle) | Vomiting grade 1, no. of patients ([1]; 120 mg day^−1, first cycle) | WBC grade 1, no. of patients ([1]; 120 mg day^−1, first cycle) | ANC grade 4, worse toxicity per cycle ([1]; 150 mg day^−1, all cycles) | Diarrhoea grade 1, worse toxicity per cycle ([1]; 150 mg day^−1, all cycles) | Diarrhoea grade 2, worse toxicity per cycle ([1]; 150 mg day^−1, all cycles) | Diarrhoea grade 3, worse toxicity per cycle ([1]; 150 mg day^−1, all cycles) | Plt grade 1, worse toxicity per cycle ([1]; 150 mg day^−1, all cycles) | Vomiting grade 1, worse toxicity per cycle ([1]; 150 mg day^−1, all cycles) | WBC grade 2, worse toxicity per cycle ([1]; 150 mg day^−1, all cycles) | ANC grade 4, no. of patients ([1]; 150 mg day^−1, first cycle) | DLT, no. of patients ([1]; 150 mg day^−1, first cycle) | Diarrhoea grade 1, no. of patients ([1]; 150 mg day^−1, first cycle) | Diarrhoea grade 2, no. of patients ([1]; 150 mg day^−1, first cycle) | Diarrhoea grade 3, no. of patients ([1]; 150 mg day^−1, first cycle) | Nausea grade 1, no. of patients ([1]; 150 mg day^−1, first cycle) | Plt grade 1, no. of patients ([1]; 150 mg day^−1, first cycle) | WBC grade 2, no. of patients ([1]; 150 mg day^−1, first cycle) | ANC grade 3, worse toxicity per cycle ([1]; 180 mg day^−1, all cycles) | Diarrhoea grade 1, worse toxicity per cycle ([1]; 180 mg day^−1, all cycles) | Diarrhoea grade 2, worse toxicity per cycle ([1]; 180 mg day^−1, all cycles) | Diarrhoea grade 4, worse toxicity per cycle ([1]; 180 mg day^−1, all cycles) | Fatigue grade 1, worse toxicity per cycle ([1]; 180 mg day^−1, all cycles) | Fatigue grade 2, worse toxicity per cycle ([1]; 180 mg day^−1, all cycles) | Nausea grade 2, worse toxicity per cycle ([1]; 180 mg day^−1, all cycles) | Nausea grade 3, worse toxicity per cycle ([1]; 180 mg day^−1, all cycles) | ANC grade 3, no. of patients ([1]; 180 mg day^−1, first cycle) | DLT, no. of patients ([1]; 180 mg day^−1, first cycle) | Diarrhoea grade 1, no. of patients ([1]; 180 mg day^−1, first cycle) | Diarrhoea grade 2, no. of patients ([1]; 180 mg day^−1, first cycle) | Fatigue grade 1, no. of patients ([1]; 180 mg day^−1, first cycle) | Fatigue grade 2, no. of patients ([1]; 180 mg day^−1, first cycle) | Fatigue grade 3, no. of patients ([1]; 180 mg day^−1, first cycle)
180 mg/day: maximum tolerated dose (MTD) [1, 4]
3: Nausea grade 1, worse toxicity per cycle ([1]; 30 mg day^−1, all cycles) | Vomiting grade 1, worse toxicity per cycle ([1]; 30 mg day^−1, all cycles) | Nausea grade 1, no. of patients ([1]; 60 mg day^−1, first cycle) | Diarrhoea grade 1, worse toxicity per cycle ([1]; 120 mg day^−1, all cycles) | Diarrhoea grade 2, worse toxicity per cycle ([1]; 120 mg day^−1, all cycles) | Vomiting grade 1, worse toxicity per cycle ([1]; 120 mg day^−1, all cycles) | Fatigue grade 1, no. of patients ([1]; 120 mg day^−1, first cycle) | Fatigue grade 2, no. of patients ([1]; 120 mg day^−1, first cycle) | Nausea grade 2, no. of patients ([1]; 120 mg day^−1, first cycle) | Vomiting grade 2, worse toxicity per cycle ([1]; 150 mg day^−1, all cycles) | Fatigue grade 2, no. of patients ([1]; 150 mg day^−1, first cycle) | Vomiting grade 2, no. of patients ([1]; 150 mg day^−1, first cycle) | Nausea grade 1, worse toxicity per cycle ([1]; 180 mg day^−1, all cycles) | Nausea grade 1, no. of patients ([1]; 180 mg day^−1, first cycle) | Vomiting grade 2, no. of patients ([1]; 180 mg day^−1, first cycle)
54±32%: oral availability [2]
8: Nausea grade 1, worse toxicity per cycle ([1]; 120 mg day^−1, all cycles)
2: Fatigue grade 2, worse toxicity per cycle ([1]; 30 mg day^−1, all cycles) | Nausea grade 2, worse toxicity per cycle ([1]; 30 mg day^−1, all cycles) | Nausea grade 1, no. of patients ([1]; 30 mg day^−1, first cycle) | Fatigue grade 1, worse toxicity per cycle ([1]; 60 mg day^−1, all cycles) | Fatigue grade 2, worse toxicity per cycle ([1]; 60 mg day^−1, all cycles) | Fatigue grade 3, worse toxicity per cycle ([1]; 60 mg day^−1, all cycles) | Vomiting grade 1, no. of patients ([1]; 60 mg day^−1, first cycle) | Vomiting grade 3, worse toxicity per cycle ([1]; 120 mg day^−1, all cycles) | WBC grade 1, worse toxicity per cycle ([1]; 120 mg day^−1, all cycles) | Diarrhoea grade 2, no. of patients ([1]; 120 mg day^−1, first cycle) | Vomiting grade 2, no. of patients ([1]; 120 mg day^−1, first cycle) | Vomiting grade 3, no. of patients ([1]; 120 mg day^−1, first cycle) | Nausea grade 1, worse toxicity per cycle ([1]; 150 mg day^−1, all cycles) | Nausea grade 2, worse toxicity per cycle ([1]; 150 mg day^−1, all cycles) | Nausea grade 2, no. of patients ([1]; 150 mg day^−1, first cycle) | Fatigue grade 3, worse toxicity per cycle ([1]; 180 mg day^−1, all cycles) | Plt grade 1, worse toxicity per cycle ([1]; 180 mg day^−1, all cycles) | Plt grade 1, no. of patients ([1]; 180 mg day^−1, first cycle)
1 to 20 days: nausea and vomiting, range of duration ([1]; dose level 180 mg)
mild: overall haematological toxicity ([1]; all dose levels)
6: Nausea grade 1, worse toxicity per cycle ([1]; 60 mg day^−1, all cycles)
active: activity against resistant cells [3]
1 to 14 days: diarrhoea, range of duration ([1]; all dose levels)
No significant abnormalities: abnormalities in ECG tracings ([1]; prior to treatment and following first drug administration)
four patients: patients with grade 2 anaemia ([1]; all dose levels)
26%: diarrhoea grade 1–2, share of cycles ([1]; all cycles)
5: Fatigue grade 1, worse toxicity per cycle ([1]; 120 mg day^−1, all cycles) | Fatigue grade 2, worse toxicity per cycle ([1]; 120 mg day^−1, all cycles) | Vomiting grade 2, worse toxicity per cycle ([1]; 120 mg day^−1, all cycles) | Nausea grade 1, no. of patients ([1]; 120 mg day^−1, first cycle) | Vomiting grade 2, worse toxicity per cycle ([1]; 180 mg day^−1, all cycles)
5 days: diarrhoea, median day of onset ([1]; all dose levels)
2 days: nausea and vomiting, median duration ([1]; 30 mg)
7: Nausea grade 2, worse toxicity per cycle ([1]; 120 mg day^−1, all cycles)
No treatment-related deaths: treatment-related deaths ([1]; in vivo)
4: Vomiting grade 1, worse toxicity per cycle ([1]; 60 mg day^−1, all cycles) | Fatigue grade 2, worse toxicity per cycle ([1]; 150 mg day^−1, all cycles)
6%: diarrhoea grade 3–4, share of cycles ([1]; all cycles)
120 mg/day: recommended dose for further studies ([1]; days 1–5 every 3 weeks)
